In series [1] the target is NAD(P)H dehydrogenase [quinone] 1 (Mus musculus) (UniProt Q64669). Description: Activation of quinone reductase in mouse Hepa1c1c7 cells at 20 uM incubated for 24 hrs by MTT based assay relative to control. Particulars: filed as activator. The series is classed as cell-based.
For series [2], the system named is HUVEC. Description: Anti-angiogenesis activity in HUVEC assessed as inhibition of VEGF-induced tube formation incubated for 6 hrs by capillary tube formation assay. The series is classed as functional, cell-based. To be noted: Homo sapiens.
Series [3] is described as follows: Cytotoxicity against mouse Hepa1c1c7 cells assessed as reduction in cell viability after 24 hrs by MTT assay. Particulars: hepa1c1c7, 24 h. It counts as cell-based.

Chain of NAD(P)H dehydrogenase [quinone] 1 (Mus musculus) (Q64669 whole entry): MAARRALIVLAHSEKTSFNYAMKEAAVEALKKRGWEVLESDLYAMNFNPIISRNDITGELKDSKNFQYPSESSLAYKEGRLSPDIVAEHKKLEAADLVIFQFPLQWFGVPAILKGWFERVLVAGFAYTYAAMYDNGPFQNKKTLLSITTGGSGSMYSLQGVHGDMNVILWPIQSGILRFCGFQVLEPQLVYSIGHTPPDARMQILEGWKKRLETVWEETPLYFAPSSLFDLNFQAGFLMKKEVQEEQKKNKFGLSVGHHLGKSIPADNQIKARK

`CCC[C@]1(O)C[C@H](O)[C@@H](C)[C@H]([C@H](C)[C@@H]2C/C=C/C=C/[C@H](O)C(=O)/C(C)=C/C=C/C(C)=C/[C@@H](O)/C(C)=C/CC(=O)O2)O1` gave a fold change (FC) in series [1] of 2.07. For the same compound, the IC50 in series [2] is 20 µM. Also, the Activity entry in series [3] was “Non-Toxic”.
In the case of `C/C=C\[C@@H](O)CC[C@@H](C)[C@@H](O)[C@H](C)[C@]1(C)C/C=C/C=C/[C@H](O)C(=O)/C(C)=C/C=C/C(C)=C/[C@@H](O)/C(C)=C/CC(=O)O1`, in series [1], the fold change (FC) stood at 2.08. Further, in series [2], the 50% inhibitory concentration (IC50) was found to be 13 µM. Besides, the Activity result in series [3] is “Non-Toxic”.
As for `CCN(CC)CCNC(=O)c1c(C)[nH]c(/C=C2\C(=O)Nc3ccc(F)cc32)c1C` [SUNITINIB], the IC50 in series [2] is 1.5 µM.

The values are drawn from ChEMBL document CHEMBL4665794, “Formicolides A and B, Antioxidative and Antiangiogenic 20-Membered Macrolides from a Wood Ant Gut Bacterium” (J Nat Prod, 2020).
